Laboratory results: ChEMBL document CHEMBL1201862, “PubChem BioAssay data set” (2004)
Values joined by “and” are separate entries in the source; they are usually repeats but may differ in a detail not shown here. Identical values can stand only once.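 Assay format: 96-well plates, 48-hour exposure. GI50 = concentration required for 50% inhibition of growth.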 Active and inactive are the calls of the source. Cut-off read from the data, not from the text of the source: active = GI50 up to about 1.1 µM and inactive = higher.

Legend:
Experiment in all cases: NCI anticancer screen, dose series, 48 h
[1] = test system: NCI-H23
[2] = test system: OVCAR-4
[3] = test system: OVCAR-8
[4] = test system: SF-268
[5] = test system: M19-MEL
[6] = test system: A549
[7] = test system: UO-31
[8] = test system: KM12
[9] = test system: IGROV-1
[10] = test system: OVCAR-5
[11] = test system: M14
[12] = test system: SK-OV-3
[13] = test system: A498
[14] = test system: NCI-H226
[15] = test system: RXF 393
[16] = test system: HL-60

Measured: GI50

CSC1CC2C(CC1(C)O)C2(C)C (configuration not stated)
inactive: [1] > 100 µM | [2] > 100 µM | [3] > 100 µM | [4] > 100 µM | [5] > 100 µM | [6] > 100 µM | [7] > 100 µM and 65 µM | [8] > 100 µM | [9] > 100 µM | [10] > 100 µM | [11] > 100 µM | [12] > 100 µM | [13] > 100 µM

Cc1nc2ccccc2c(=O)n1NC(=S)Nc1cccc(Cl)c1
inactive: [1] > 100 µM | [2] > 100 µM | [14] > 100 µM | [3] > 100 µM | [4] > 100 µM | [5] > 100 µM | [15] > 100 µM | [6] > 100 µM | [7] > 100 µM | [8] > 100 µM | [9] > 100 µM | [10] > 100 µM | [11] > 100 µM | [12] > 100 µM | [13] > 100 µM | [16] > 100 µM

CC1=N/C(=C\c2c(O)ccc3ccccc23)C(=O)O1
inactive: [1] > 100 µM | [2] > 100 µM | [3] > 100 µM | [4] > 100 µM | [5] > 100 µM | [15] > 100 µM | [6] > 100 µM | [7] > 100 µM | [8] > 100 µM | [9] > 100 µM | [10] > 100 µM | [11] > 100 µM | [13] > 100 µM | [16] > 100 µM

[N-]=[N+]=NC1C2CC3CC(C2)CC1C3 (configuration not stated)
inactive: [1] > 100 µM | [2] > 100 µM | [14] > 100 µM | [3] > 100 µM | [5] > 100 µM | [6] > 100 µM | [7] > 100 µM | [8] > 100 µM | [9] > 100 µM | [10] > 100 µM | [11] > 100 µM | [12] > 100 µM | [13] > 100 µM

O/N=C/c1cc2c(cc1Br)OCO2
inactive: [1] > 100 µM | [2] > 100 µM | [14] > 100 µM | [3] > 100 µM | [5] > 100 µM | [6] > 100 µM | [7] > 100 µM | [8] > 100 µM | [9] > 100 µM | [10] > 100 µM | [11] > 100 µM | [12] > 100 µM | [13] > 100 µM | [16] > 100 µM

OCC(O)C(OC1OC(CO)C(O)C(O)C1O)c1nn(-c2ccc(Cl)cc2)c2nc3cc(Cl)c(Cl)cc3nc12 (configuration not stated)
inactive: [1] > 100 µM | [2] > 100 µM | [3] > 100 µM | [4] > 100 µM | [5] > 100 µM | [15] > 100 µM | [7] > 100 µM | [8] > 100 µM | [10] > 100 µM | [11] > 100 µM | [12] > 100 µM | [13] > 100 µM

Clc1ccc(OCCSCCCCCCCCCCSCCOc2ccc(Cl)cc2)cc1
inactive: [1] > 100 µM | [14] > 100 µM | [3] > 100 µM | [4] > 100 µM | [5] > 100 µM | [15] > 100 µM | [6] > 100 µM | [7] > 100 µM | [8] > 100 µM | [9] > 100 µM | [10] > 100 µM | [12] > 100 µM | [13] > 100 µM | [16] > 100 µM

COC(=O)C12C3C4C1C1C2C3C41C(=O)OC(C)(C)C (configuration not stated)
inactive: [1] > 100 µM | [2] > 100 µM | [14] > 100 µM | [3] > 81.3 µM | [4] > 100 µM | [5] > 100 µM | [15] > 100 µM | [6] > 64.3 µM | [7] > 100 µM | [8] > 100 µM | [9] > 100 µM | [10] > 100 µM | [11] > 100 µM | [12] > 100 µM | [13] > 100 µM | [16] > 53.8 µM

COC(=O)C(C(=O)C(=O)Nc1cccc(O)c1)c1nc2ccc(Cl)cc2nc1O (configuration not stated)
inactive: [1] > 100 µM | [2] > 100 µM | [14] 71.6 µM | [3] > 100 µM | [4] > 100 µM | [5] > 100 µM | [15] 74.3 µM | [6] > 100 µM | [7] > 100 µM | [8] > 100 µM | [9] > 100 µM | [10] > 100 µM | [11] > 100 µM | [12] > 100 µM | [13] > 100 µM | [16] > 100 µM

c1ccc(C2[C@@H]3CCCc4ccccc4C3=NN2c2ccccc2)cc1 (some centres not stated)
inactive: [1] 61 µM | [2] 49.5 µM | [14] > 100 µM | [3] > 100 µM | [4] > 100 µM | [5] > 100 µM | [15] 92.3 µM | [6] > 100 µM | [7] > 100 µM | [8] > 100 µM | [9] > 100 µM | [10] > 100 µM | [13] > 100 µM | [16] 80 µM
